ChEMBL document CHEMBL1201862, “PubChem BioAssay data set” (2004)
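Method: 48-hour compound exposure of cells in 96-well plates, five concentrations, linear interpolation of endpoints. Here, GI50 denotes the concentration required for 50% inhibition of growth.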 Active and inactive are the calls of the source. Cut-off read from the data, not from the text of the source: active = GI50 up to about 1.1 µM and inactive = higher.

What was measured:
Assay in all cases: NCI tumour cell line growth inhibition, 48 h
[1] = test system: IGROV-1
[2] = test system: RPMI-8226
[3] = test system: MOLT-4
[4] = test system: UO-31
[5] = test system: RXF 393
[6] = test system: OVCAR-3
[7] = test system: HOP-62
[8] = test system: NCI/ADR-RES
[9] = test system: NCI-H522
[10] = test system: DU-145
[11] = test system: HL-60
[12] = test system: KM12
[13] = test system: SF-295
[14] = test system: NCI-H23
[15] = test system: BT-549
[16] = test system: SNB-19
[17] = test system: NCI-H460
[18] = test system: UACC-62
[19] = test system: HCT-15
[20] = test system: 786-0

## O=C(/C=C/c1ccccc1)c1cc(Br)ccc1O
[1]
  GI50: 11.5 µM (inactive)
[2]
  GI50: 6.84 µM (inactive)
[3]
  GI50: 15.2 µM (inactive)
[4]
  GI50: 10.9 µM (inactive)
[5]
  GI50: 18.8 µM (inactive)
[6]
  GI50: 18 µM (inactive)
[7]
  GI50: 20.1 µM (inactive)
[8]
  GI50: 17.5 µM (inactive)
[9]
  GI50: 12.5 µM (inactive)
[10]
  GI50: 14.9 µM (inactive)
[11]
  GI50: 4.06 µM (inactive)
[12]
  GI50: 12 µM (inactive)
[13]
  GI50: 16.9 µM (inactive)
[14]
  GI50: 16 µM (inactive)
[15]
  GI50: 16 µM (inactive)
[16]
  GI50: 17.1 µM (inactive)
[17]
  GI50: 17.9 µM (inactive)
[18]
  GI50: 13.9 µM (inactive)
[19]
  GI50: 14.1 µM
[20]
  GI50: 13.9 µM (inactive)
